From patent US20160135464A1, “PESTICIDAL COMPOSITIONS AND PROCESSES RELATED THERETO” (Dow AgroSciences LLC, priority 2014, published 2016)
Values belong to the molecule of their own block, whether it stands above or below them.

Assays:
[1] = test system: Beet Armyworm (BAW) (Spodoptera exigua); test: Bioassay on beet armyworm (BAW), 128-well diet tray assay, percent mortality; format: in vivo; details: Spodoptera exigua, 50 μg/cm^2
Procedure: (§1) Certain molecules disclosed in this document were tested against BAW and CEW using procedures described in the following examples. In the reporting of the results, the “BAW & CEW Rating Table” was used (See Table Section).
Bioassays on BAW (Spodoptera exigua)
Bioassays on BAW were conducted using a 128-well diet tray assay. One to five second instar BAW larvae were placed in each well (3 mL) of the diet tray that had been previously filled with 1 mL of artificial diet to which 50 μg/cm^2 of the test compound (dissolved in 50 μL of 90:10 acetone-water mixture) had been applied (to each of eight wells) and then allowed to dry. Trays were covered with a clear self-adhesive cover and held at 25° C., 14:10 light-dark for five to seven days. Percent mortality was recorded for the larvae in each well; activity in the eight wells was then averaged. The results are indicated in the table entitled “Table 5: Biological Results” (See Table Section).

[2] = test system: Corn Earworm (CEW) (Helicoverpa zea); test: Bioassay on corn earworm (CEW), 128-well diet tray assay, percent mortality; format: in vivo; details: Helicoverpa zea, 50 μg/cm^2
Procedure: as §1
Bioassays on CEW (Helicoverpa zea)
Bioassays on CEW were conducted using a 128-well diet tray assay. One to five second instar CEW larvae were placed in each well (3 mL) of the diet tray that had been previously filled with 1 mL of artificial diet to which 50 μg/cm^2 of the test compound (dissolved in 50 μL of 90:10 acetone-water mixture) had been applied (to each of eight wells) and then allowed to dry. Trays were covered with a clear self-adhesive cover and held at 25° C., 14:10 light-dark for five to seven days. Percent mortality was recorded for the larvae in each well; activity in the eight wells was then averaged. The results are indicated in the table entitled “Table 5: Biological Results” (See Table Section).

[3] = test system: Green Peach Aphid (GPA) (Myzus persicae); test: Bioassay on green peach aphid (GPA), foliar spray on cabbage seedlings, corrected % control; format: in vivo; details: 72 h, read-out: % Mortality GPA 200 ppm
Procedure: Certain molecules disclosed in this document were tested against GPA using procedures described in the following example. In the reporting of the results, the “GPA Rating Table” was used (See Table Section).
Cabbage seedlings grown in 3-inch pots, with 2-3 small (3-5 cm) true leaves, were used as test substrate. The seedlings were infested with 20-50 GPA (wingless adult and nymph stages) one day prior to chemical application. Four pots with individual seedlings were used for each treatment. Test compounds (2 mg) were dissolved in 2 mL of acetone/methanol (1:1) solvent, forming stock solutions of 1000 ppm test compound. […] A hand-held aspirator-type sprayer was used for spraying a solution to both sides of […] leaves until runoff. Reference plants (solvent check) were sprayed with the diluent only containing 20% by volume of acetone/methanol (1:1) solvent. Treated plants were held in a holding room for three days at approximately 25° C. and ambient relative humidity (RH) prior to grading. Evaluation was conducted by counting the number of live aphids per plant under a microscope.
Corrected % Control=100*(X−Y)/X • where • X=No. of live aphids on solvent check plants and • Y=No. of live aphids on treated plants
The results are indicated in the table entitled “Table 5: Biological Results” (See Table Section).

Structure (SMILES): Cc1cc(C)c(N2C(=O)CS/C2=N\N=C\c2ccc(-c3ncn(-c4ccc(OC(F)(F)F)cc4)n3)cc2)c(C)c1 [Compound 72C]
pest or weed control at 50 µg/cm2, 50 µg/cm2 [1]: 50 to 100%
pest or weed control at 50 µg/cm2, 50 µg/cm2 [2]: 50 to 100%
pest or weed control at 200 ppm [3]: 0 to 80%

Structure (SMILES): CCc1ccccc1N1/C(=N/N=C/c2ccc(-c3ncn(-c4ccc(OC(F)(F)F)cc4)n3)cc2)SCC1(C)O (stereo not drawn) [Compound 254C]
pest or weed control at 50 µg/cm2, 50 µg/cm2 [1]: 50 to 100%
pest or weed control at 50 µg/cm2, 50 µg/cm2 [2]: 50 to 100%
pest or weed control at 200 ppm [3]: 0 to 80%

Structure (SMILES): CCCc1ccccc1N1/C(=N/N=C/c2ccc(-c3ncn(-c4ccc(OC(F)(F)F)cc4)n3)cc2)SCC1(C)O (stereo not drawn) [Compound 256C]
pest or weed control at 50 µg/cm2, 50 µg/cm2 [1]: 50 to 100%
pest or weed control at 50 µg/cm2, 50 µg/cm2 [2]: 50 to 100%
pest or weed control at 200 ppm [3]: 0 to 80%

Structure (SMILES): COc1ccc(N2/C(=N/N=C/c3ccc(-c4ncn(-c5ccc(OC(F)(F)F)cc5)n4)cc3)SCC2(C)O)c(C)c1 (stereo not drawn) [Compound 245C]
pest or weed control at 50 µg/cm2, 50 µg/cm2 [1]: 50 to 100%
pest or weed control at 50 µg/cm2, 50 µg/cm2 [2]: 50 to 100%
pest or weed control at 200 ppm [3]: 0 to 80%

Structure (SMILES): CCc1cccc(C)c1N1CCCS/C1=N\N=C\c1ccc(-c2ncn(-c3ccc(OC(F)(F)F)cc3)n2)cc1 [Compound 180C]
pest or weed control at 50 µg/cm2, 50 µg/cm2 [1]: 50 to 100%
pest or weed control at 50 µg/cm2, 50 µg/cm2 [2]: 50 to 100%
pest or weed control at 200 ppm [3]: 0 to 80%

melting point: 169 to 170 °C
Structure (SMILES): CC(C)c1cc(F)c(F)cc1NC(=S)NN [Compound I-54]

melting point: 167 to 169 °C
Structure (SMILES): Cc1ccc(C(C)C)c(NC(=S)NN)c1 [Compound I-46]

melting point: 219 to 222 °C
Structure (SMILES): Cc1cccc(NC(=S)N/N=C/c2ccc(-c3ncn(-c4ccc(OC(F)(F)F)cc4)n3)cc2)c1C(C)C [Compound I-43]

Structure (SMILES): CC(C)c1ccccc1N1/C(=N/N=C/c2ccc(-c3ncn(-c4ccc(OC(F)(F)C(F)(F)F)cc4)n3)cc2)SCC1(C)O (stereo not drawn) [Compound 262C]
pest or weed control at 50 µg/cm2, 50 µg/cm2 [1]: 50 to 100%
pest or weed control at 50 µg/cm2, 50 µg/cm2 [2]: 50 to 100%
pest or weed control at 200 ppm [3]: 0 to 80%

melting point: 213 to 216 °C
Structure (SMILES): FC(F)(F)Oc1ccc(-n2cnc(-c3ccc(/C=N/NC(=S)Nc4ccccc4C4CCCC4)cc3)n2)cc1 [Compound I-35]

melting point: 217 to 221 °C
Structure (SMILES): CC(C)c1cc(F)c(F)cc1NC(=S)N/N=C/c1ccc(-c2ncn(-c3ccc(OC(F)(F)F)cc3)n2)cc1 [Compound I-55]

Structure (SMILES): CC(C)c1ccccc1N1/C(=N/N=C/c2ccc(-c3ncn(-c4ccc(OC(F)(F)F)cc4)n3)cc2)SCC1(O)c1ccccc1C(F)(F)F (stereo not drawn) [Compound 263C]
pest or weed control at 50 µg/cm2, 50 µg/cm2 [1]: 50 to 100%
pest or weed control at 50 µg/cm2, 50 µg/cm2 [2]: 50 to 100%
pest or weed control at 200 ppm [3]: 0 to 80%

Structure (SMILES): Cc1ccccc1N1/C(=N/N=C/c2ccc(-c3ncn(-c4ccc(OC(F)(F)F)cc4)n3)cc2)SCC1(C)O (stereo not drawn) [Compound 248C]
pest or weed control at 50 µg/cm2, 50 µg/cm2 [1]: 50 to 100%
pest or weed control at 50 µg/cm2, 50 µg/cm2 [2]: 50 to 100%
pest or weed control at 200 ppm [3]: 0 to 80%

Structure (SMILES): CC(C)c1ccccc1N1/C(=N/N=C/c2ccc(-c3ncn(-c4ccc(OC(F)(F)F)cc4)n3)cc2)SCC1(C)O (stereo not drawn) [Compound 242C]
pest or weed control at 50 µg/cm2, 50 µg/cm2 [1]: 50 to 100%
pest or weed control at 50 µg/cm2, 50 µg/cm2 [2]: 50 to 100%
pest or weed control at 200 ppm [3]: 0 to 80%

Structure (SMILES): Cc1ccc(N2/C(=N/N=C/c3ccc(-c4ncn(-c5ccc(OC(F)(F)F)cc5)n4)cc3)SCC2(C)O)c(C(C)C)c1 (stereo not drawn) [Compound 251C]
pest or weed control at 50 µg/cm2, 50 µg/cm2 [1]: 50 to 100%
pest or weed control at 50 µg/cm2, 50 µg/cm2 [2]: 50 to 100%
pest or weed control at 200 ppm [3]: 0 to 80%

Structure (SMILES): CCC(C)c1ccccc1N1/C(=N/N=C/c2ccc(-c3ncn(-c4ccc(OC(F)(F)F)cc4)n3)cc2)SCC1(C)O (stereo not drawn) [Compound 243C]
pest or weed control at 50 µg/cm2, 50 µg/cm2 [1]: 50 to 100%
pest or weed control at 50 µg/cm2, 50 µg/cm2 [2]: 50 to 100%
pest or weed control at 200 ppm [3]: 0 to 80%

melting point: 163 to 167 °C
Structure (SMILES): CC(C)c1cc(F)ccc1NC(=S)NN [Compound I-50]

Structure (SMILES): CC(C)c1cccc(F)c1N1/C(=N/N=C/c2ccc(-c3ncn(-c4ccc(OC(F)(F)F)cc4)n3)cc2)SCC1(C)O (stereo not drawn) [Compound 250C]
pest or weed control at 50 µg/cm2, 50 µg/cm2 [1]: 50 to 100%
pest or weed control at 50 µg/cm2, 50 µg/cm2 [2]: 50 to 100%
pest or weed control at 200 ppm [3]: 0 to 80%
